# Target: Peroxisomal multifunctional enzyme type 2 (Homo sapiens) (UniProt P51659)
# Assay: HSD17B4 binders by thermal shift, biophysical, DSF, SYPRO orange, recombinant protein (AID 509)
# Details: protein 2 µM, buffer 10 mM HEPES, pH 7.5, NaCl 150 mM, stronger effect = higher value
# Peroxisomal multifunctional enzyme type 2 (Homo sapiens), sequence (P51659 whole entry, looked up): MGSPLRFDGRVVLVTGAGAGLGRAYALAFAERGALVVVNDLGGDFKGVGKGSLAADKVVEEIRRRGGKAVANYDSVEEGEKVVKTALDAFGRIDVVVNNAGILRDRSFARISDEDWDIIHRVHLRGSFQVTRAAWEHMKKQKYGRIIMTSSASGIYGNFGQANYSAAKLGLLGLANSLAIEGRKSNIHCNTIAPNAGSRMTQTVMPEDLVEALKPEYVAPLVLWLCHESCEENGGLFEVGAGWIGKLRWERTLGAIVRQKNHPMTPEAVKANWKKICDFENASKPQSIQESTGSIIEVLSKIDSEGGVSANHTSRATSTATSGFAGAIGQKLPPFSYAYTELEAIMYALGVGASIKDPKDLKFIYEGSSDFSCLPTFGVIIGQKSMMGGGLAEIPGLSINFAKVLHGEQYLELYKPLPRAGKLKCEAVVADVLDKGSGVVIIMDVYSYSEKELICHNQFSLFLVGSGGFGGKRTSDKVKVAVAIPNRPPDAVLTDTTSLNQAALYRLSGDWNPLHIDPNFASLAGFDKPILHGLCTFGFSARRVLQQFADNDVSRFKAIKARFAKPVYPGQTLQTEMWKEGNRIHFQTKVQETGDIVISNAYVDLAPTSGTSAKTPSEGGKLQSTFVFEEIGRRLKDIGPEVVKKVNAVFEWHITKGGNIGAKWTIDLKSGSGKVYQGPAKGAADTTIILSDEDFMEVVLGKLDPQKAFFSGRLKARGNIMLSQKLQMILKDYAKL
SMILES,Tm shift (at 10 µM),Tm shift (at 100 µM)
Oc1cc(O)c2cc(O)c(-c3ccc(O)c(O)c3)[o+]c2c1,2.1 Celsius,–
O=C1C2(Cl)C3(Cl)C4(Cl)C(Cl)(Cl)C5(Cl)C3(Cl)C1(Cl)C5(Cl)C24Cl (configuration not stated),–,3 Celsius
